Measured values published in paper PMC8426299, “Effect of severe renal impairment on the pharmacokinetics of brigatinib” (Investigational New Drugs, 2021).
Entries after “also recorded” stand apart in the source; their conditions may differ. Read-outs that look alike come from different tables or passages of the source.

Tests used:
2C8 = system: 2C8; set-up: method as in ref 5, 11 = [5]; 5. Alunbrig brigatinib [summary of product characteristics] (2020) Takeda Pharmaceutical Company Limited. https://www.alunbrig.com/assets/pi.pdf . Accessed 9 Mar 2021 || [11]; PMID 31287236; doi:10.1002/cpdd.723; 11. Tugnait M Gupta N Hanley MJ Sonnichsen D Kerstein D Dorer DJ Venkatakrishnan K Narasimhan N Effects of strong CYP2C8 or CYP3A inhibition and CYP3A induction on the pharmacokinetics of brigatinib; details: in vitro; cited from earlier work
[1] = system: cytochrome P450 (CYP) 3A4; set-up: method as in ref 5, 11 = [5]; 5. Alunbrig brigatinib [summary of product characteristics] (2020) Takeda Pharmaceutical Company Limited. https://www.alunbrig.com/assets/pi.pdf . Accessed 9 Mar 2021 || [11]; PMID 31287236; doi:10.1002/cpdd.723; 11. Tugnait M Gupta N Hanley MJ Sonnichsen D Kerstein D Dorer DJ Venkatakrishnan K Narasimhan N Effects of strong CYP2C8 or CYP3A inhibition and CYP3A induction on the pharmacokinetics of brigatinib; details: in vitro; cited from earlier work
[2] = Urinary pharmacokinetics after single oral dose of brigatinib 90 mg; assay type: in vivo, human; details: for CL renal: human, oral, 90 mg; for CL renal / Ae0–168, Range / Ae0–168, amount of brigatinib excreted from time zero to 168 hours, mean (SD) / Fe0–168, Range: urine
Method: (§1) Blood samples were collected before brigatinib administration (predose) and at 0.5, 1, 1.5, 2, 2.5, 3, 4, 6, 8, 12, 24, 36, 48, 60, 72, 96, 120, 144, and 168 h after brigatinib administration to determine plasma brigatinib concentrations. Urine was collected predose and during intervals (0–8, 8–12, 12–24, 24–48, 48–72, 72–96, 96–120, and 120–168 h) after brigatinib administration to determine urine brigatinib concentrations. Urine samples were subsequently diluted 50:50 (v:v) urine:isopropanol at the clinical site.
(§2) Plasma and urine samples were analyzed by Charles River Laboratories, Inc. (Worcester, MA, USA) by LC-MS/MS, as previously reported. Plasma samples were analyzed using a dual-range assay with a lower limit of quantitation of 0.100 ng/mL and an upper limit of 2500 ng/mL [11]. Urine samples were analyzed using a single-range assay with a lower limit of quantitation of 25.0 ng/mL and upper limit of 2500 ng/mL [11].
(§3) Individual participant plasma concentration-time profiles were analyzed via noncompartmental analysis methods using Phoenix WinNonlin (version 6.4) to estimate PK parameters. Plasma PK parameters calculated for brigatinib included maximum observed plasma concentration (Cmax); Tmax; area under the plasma concentration-time curve from time zero to the time of the last measurable concentration (AUC0 − last); AUC from time zero to infinity (AUC0−∞); terminal elimination half-life (t1/2); apparent oral clearance (CL/F); and apparent volume of distribution (V/F). The fraction of unbound brigatinib in plasma was determined using the following formula: % free (unbound) = [free brigatinib concentration measured in buffer after RED]/[total concentration measured in plasma] X 100. Unbound brigatinib plasma PK parameters (except unbound CL/F and V/F, which were calculated as total CL/F or total V/F divided by the overall mean fraction unbound) were calculated using the following formula: unbound PK parameter = (parameter based on total concentrations) x (individual participant’s overall mean fraction unbound value). Urinary PK parameters included the amount of brigatinib excreted from time zero to time t (Ae0 − t,), fraction of the dose excreted (%) from time zero to time t (Fe0 − t), and renal clearance (CLR).

[3] = Open-label single-dose (brigatinib 90 mg oral, fasting) plasma pharmacokinetic study, severe renal impairment vs matched healthy volunteers; assay type: in vivo, human; set-up: Cmax,u LS Mean (SE): unit not given beside the values; details: for half-life / Cmax: human, plasma, 90 mg; for half-life: oral, after a single dose, read-out: mean t1/2 (converted); for Cmax: po, read-out: total brigatinib Cmax, geometric mean (CV%); for Cmax / Tmax, median (range): single oral 90 mg; for V/F,u, geometric mean (geometric % CV): unbound apparent volume of distribution; for Cmax,u, Range / Cmax,u, geometric mean (geometric % CV): unbound
Method: This was an open-label, parallel-group study that enrolled patients with severe renal impairment and matched healthy volunteers with normal renal function. The study consisted of a 28-day screening period and a single nine-day inpatient treatment period (day − 1 to day 8). On the morning of day 1, each participant received a single oral dose of brigatinib 90 mg under fasting conditions.Participants were required to abstain from food for approximately 10 h prior to study drug administration and for approximately four hours postdose, with the exception of the standardized snack. Due to the high prevalence of diabetes in patients with severe renal impairment, the standardized snack (not high fat or high calorie) was given to all participants at 2.5 h postdose. Water was permitted ad libitum except for one hour prior to dosing and for approximately one hour postdose. Participants underwent end-of-study procedures and were discharged from the clinical site on day 8.
Healthy volunteers with normal renal function (eGFR ≥ 90 mL/min/1.73 m^2) were matched to patients with severe renal impairment by age (± 10 years), sex, body mass index (BMI; ±15 % at screening), and if possible, smoking habits. Patients with severe renal impairment were defined as those with an eGFR < 30 mL/min/1.73 m^2. eGFR was calculated using the Modification of Diet in Renal Disease equation (MDRD). Estimated creatinine clearance was based on the Cockcroft-Gault equation.
as §1, §2, §3
Descriptive statistics, including number of observations (n), arithmetic mean, standard deviation (SD), coefficient of variation (CV%), median, minimum, and maximum, were calculated for each time point for brigatinib plasma concentrations in each study group. […]

[4] = set-up: method as in PMID 32816246; details: eGFR 30 to < 90 mL/min/1.73 m^2; population PK analyses; cited from earlier work
[5] = severe renal impairment compared with normal renal function
[6] = Severe Renal Impairment (n = 8)
[7] = healthy volunteers with normal renal function
[8] = patients with severe renal impairment

COc1cc(N2CCC(N3CCN(C)CC3)CC2)ccc1Nc1ncc(Cl)c(Nc2ccccc2P(C)(C)=O)n1 [brigatinib]
contribution of 2C8 to metabolism (2C8): minor contribution
contribution of CYP3A4 to metabolism [1]: primarily metabolized
CL renal ([2]; Normal Renal Function (n=8), read-out: CLR, Range): 27.5 to 63.7 mL/min
CL renal ([2]; Normal Renal Function (n=8), read-out: CLR, renal clearance, mean (SD)): 41.5 mL/min
CL renal ([2]; Severe Renal Impairment (n=8), read-out: CLR, Range): 5.4 to 13.4 mL/min
CL renal ([2]; Severe Renal Impairment (n=8), read-out: CLR, renal clearance, mean (SD)): 9.17 mL/min
renal clearance as share of overall clearance of brigatinib ([2]; in vivo): approximately 25%
renal clearance of unbound brigatinib, fold lower [2, 5]: approximately five-fold
reduction of fraction of dose excreted in urine 0 to 168 h ([2]; severe renal impairment vs normal renal function): approximately 50%
nonrenal clearance, percent lower ([2]; severe renal impairment vs normal renal function, derived from renal clearance share): approximately 50%
Ae0–168, Range ([2]; Normal Renal Function (n=8)): 11.58 to 21.77 mg
Ae0–168, amount of brigatinib excreted from time zero to 168 hours, mean (SD) ([2]; Normal Renal Function (n=8)): 16.90 (3.57) mg
Fe0–168, Range ([2]; Normal Renal Function (n=8)): 12.9–24.2%
Ae0–168, Range ([2]; Severe Renal Impairment (n=7)): 3.92 to 14.36 mg
Ae0–168, amount of brigatinib excreted from time zero to 168 hours, mean (SD) ([2]; Severe Renal Impairment (n=7)): 7.58 (3.77) mg
Fe0–168, Range ([2]; Severe Renal Impairment (n=7)): 4.36–16.0%
V/F,u, Range ([3]; Normal Renal Function (n = 8)): 5898–13,744 L
V/F,u, Range [3, 6]: 3556 to 8914 L
Cmax,u LS Mean (SE) ([3]; Severe renal impairment vs. Normal renal function): 0.130 (0.1330)
half-life [3, 7]: ~42 h
half-life [3, 8]: ~54 h
Cmax [3, 7]: 362 ng/mL
Cmax [3, 8]: 471 ng/mL
Tmax, median (range) ([3]; normal renal function group): 2.0 (1.0–4.0) hours
total brigatinib AUC0 − last, percent higher [3, 5]: more than 100%
total brigatinib AUC0−∞, percent higher [3, 5]: more than 100%
Tmax, median (range) ([3]; severe renal impairment group): 2.5 (1.0–3.0) hours
unbound brigatinib AUC0 − last, percent higher ([3]; severe renal impairment versus normal renal function): 77%
V/F,u, geometric mean (geometric % CV) ([3]; Normal Renal Function (n = 8)): 8327 (30.4) L
V/F,u, geometric mean (geometric % CV) [3, 6]: 5532 (31.4) L
Cmax,u, Range ([3]; Normal Renal Function (n = 8)): 23.9 to 45.3 ng/mL
Cmax,u, geometric mean (geometric % CV) ([3]; Normal Renal Function (n = 8)): 32.29 (25.1) ng/mL
Cmax,u, Range [3, 6]: 25.2 to 55.6 ng/mL
Cmax,u, geometric mean (geometric % CV) [3, 6]: 36.76 (29.0) ng/mL
effect of mild or moderate renal impairment on brigatinib exposure / PK [4]: not associated with clinically meaningful effects on brigatinib PK; also recorded: not found to impact brigatinib exposure
